Laboratory results as given in US8748448B2, “Combination analgesic employing opioid agonist and neutral antagonist” (AIKO Biotechnology, priority 2007, dated 2014).
“And” between values parts separate entries of the source, which are not always exact repeats. Equal entries are not always repeated. “Also recorded” adds a separate entry of the source.

Columns and labels:
[1] = system: hydrocodone-induced antinociception; experiment: 55° C. warm-water tail-flick assay: inhibition of hydrocodone-induced antinociception; assay type: in vivo, mice; conditions: for time of peak effect of antinociception inhibition: hydrocodone 3.2 mg/kg i.v.
[2] = system: morphine-induced slowing of gastrointestinal transit; experiment: Oral-cecal transit time (lactulose-hydrogen breath test) with 10 mg morphine i.v.; assay type: in vivo, human
[3] = system: morphine-induced pupil constriction; experiment: Pupillometry with 10 mg morphine i.v.; assay type: in vivo, human; conditions: doses up to 20 mg i.v.
[4] = system: gastrointestinal activity in methadone-dependent subjects; experiment: Methadone maintenance subjects: laxation and oral-cecal transit time; assay type: in vivo, human
Excerpt: The aims of this first-in-human study were to examine the pharmacokinetics of 6β-naltrexol to measure two key characteristics of 6β-naltrexol in highly opioid dependent persons: unwanted aspects of opioid antagonism such as withdrawal, and preferential suppression of opioid effects on the gastrointestinal tract compared to the central nervous system. Eight subjects were enrolled. Of these subjects, four were ineligible for dosing with 6β-naltrexol: three due to small bowel bacterial overgrowth and one due to difficulty with IV catheter insertion. […] The remaining two subjects tolerated the 1.0 mg dose and reported a willingness to take higher doses of 6β-naltrexol.
Laxation was experienced for one subject (25%; 101 minutes post dose) at the 0.05 mg dose, three subjects (75%; 2, 17, and 40 minutes post dose) at the 0.5 mg dose, and two subjects (67%; both at 5 minutes post dose) at the 1.0 mg dose. […] In the two subjects who did undergo oral-cecal transit time testing (lactulose/H2 test), 6β-naltrexol accelerated GI transit time at doses of 0.25 mg and above. A quantitative evaluation of this test was not possible because of insufficient number of subjects (data from only two subjects were evaluable, while a third subject had elevated base-line H2 levels, and a fourth subject was not tested), but a detectable reversal of GI slowing at 0.25 mf 6β-naltrexol is consistent with the finding that regulator bowel movement occurred with two subjects at 0.5 mg 6β-naltrexol.

[5] = Methadone maintenance subjects: serum 6β-naltrexol pharmacokinetics; assay type: in vivo, human; conditions: 1.0 mg dose
Method: Using an assay with a lower limit of quantification of 0.5 ng/mL, 6β-naltrexol was detectable in plasma for only six hours. Determination of terminal half-life of elimination was not feasible because of lack of sufficient assay sensitivity.

[6] = system: morphine-induced antinociception; conditions: cited from earlier work
[7] = system: stereotypic circling induced by morphine; conditions: non-dependent and chronically dependent mice; cited from earlier work
[8] = Neutral antagonist comparison (Table 3)
[9] = Oral bioavailability of the neutral antagonists
[10] = Tolerability of i.v. 6β-naltrexol infusion in opioid-naïve volunteers; conditions: i.v. infusion over 30 minutes, up to 20 mg
[11] = Concentrations in plasma and brain tissue after i.p. injection (LC/MS/MS); conditions: for plasma concentration as metabolite after the naltrexone dose: after naltrexone 1 mg/kg i.p.
[12] = system: hydrocodone induced GI inhibition; experiment: GI transit assay (charcoal meal): reversal of hydrocodone induced GI inhibition
[13] = system: opioid withdrawal in methadone-dependent subjects; experiment: Double-blind ascending dose study in methadone maintenance subjects: withdrawal scales, VAS, vital signs, pupillometry, tolerability; conditions: for tolerability: b346: at all but the highest dose (1.0 mg)
[14] = antagonist p.o. co-administered with hydrocodone A90 32 mg/kg p.o.
[15] = 1 mg/kg i.p., 60 min after injection
[16] = 10 mg/kg i.p., 10 min after injection
[17] = 10 mg/kg i.p., 60 min after injection

6β-naltrexol
Antinociception ID50 ([1]; antagonist i.v. pretreatment, hydrocodone A90 3.2 mg/kg i.v.): 0.222 mg/kg | Antinociception ID50 [1, 14]: 12.3 mg/kg | Antinociception ID50 ([1]; antagonist p.o. pretreatment, hydrocodone A90 3.2 mg/kg i.v.): 2.35 mg/kg | time of peak effect of antinociception inhibition ([1]; i.v. administration): 90 min | time of peak effect of antinociception inhibition ([1]; p.o. administration): 120 min | effect of 20 mg on morphine's GI effects ([2]; 20 mg i.v., 10 mg morphine i.v.): completely blocking; also recorded: completely suppressing | peripheral over central potency ([2]; humans): at least tenfold | effect on morphine-induced pupil constriction [3]: no detectable effect | subjects experiencing laxation ([4]; 0.05 mg dose): 25% | time of laxation post dose ([4]; 0.05 mg dose): 101 min | subjects experiencing laxation ([4]; 0.5 mg dose): 75% | effect on bowel movement ([4]; 0.5 mg i.v.): near normal bowel movement; also recorded: immediate bowel movement | subjects experiencing laxation ([4]; 1.0 mg dose): 67% | time of laxation post dose ([4]; 1.0 mg dose, both subjects): 5 min | Lowest dose producing laxation ([4]; individual patients): 0.5 mg (2×) and 0.05 mg | dose sufficient initially to cause laxation ([4]; iv, methadone maintenance patients): 0.5 mg | doses accelerating GI transit time (lactulose/H2 test) ([4]; two evaluable subjects): ≥ 0.25 mg | AUC ([5]; Subject 1): 7.8 ng·h/mL | CL ([5]; Subject 1): 128 L/h | t1/2 ([5]; Subject 1): 2.2 h | AUC ([5]; Subject 2): 7.6 ng·h/mL | CL ([5]; Subject 2): 131 L/h | t1/2 ([5]; Subject 2): 2.43 h | Cmax ([5]; Subject 2, serum): 3.2 ng/mL | effect on morphine-induced antinociception ([6]; administered intraperitoneally, Wang et al. 2001): reverses | potency for reversing morphine-induced antinociception, less potent than naltrexone ([6]; published observation, depending on route of administration): 5-10 fold | effect on stereotypic circling induced by morphine [7]: prevents | Half-life of active metabolites [8]: 12 h | Bioavailability for CNS (central) effects ([8]; given orally): ~25% | Strength (as compared to 6β-naltrexol) ([8]; given orally, opioid agonist naïve or non-dependent subject): 1 | oral bioavailability (into the circulation), estimated ([9]; humans, estimated): approximately 25% | bioavailability ([9]; rodent, previously determined data not shown): 14% | oral bioavailability ([9]; species not stated): ~20% | tolerability [10]: well tolerated | Brain concentration ([11]; 1 mg/kg i.p., 10 min after injection): 7 ± 6 ng/g | Plasma concentration ([11]; 1 mg/kg i.p., 10 min after injection, mean±SD, n=3): 61 ± 7 ng/mL | Brain concentration [11, 15]: 9 ± 1 ng/g | Plasma concentration [11, 15]: 24 ± 28 ng/mL | Brain concentration [11, 16]: 89 ± 6 ng/g | Plasma concentration [11, 16]: 857 ± 122 ng/mL | Brain concentration [11, 17]: 74 ± 14 ng/g | Plasma concentration [11, 17]: 75 ± 25 ng/mL | change of levels at 60 min from those measured at 10 min ([11]; after i.p. injection): had not changed | plasma concentration as metabolite after the naltrexone dose ([11]; 10 min): 1.9 ng/mL | plasma concentration as metabolite after the naltrexone dose ([11]; 60 min): 1.7 ng/mL | detectability as metabolite after the naltrexone dose ([11]; plasma and brain tissue, method sensitive to approximately 1 ng/mL (g)): detectable in plasma but not brain tissue | GI Transit ID50 ([12]; antagonist i.v., hydrocodone A90 3.2 mg/kg i.v.): 0.0443 mg/kg | GI Transit ID50 [12, 14]: 1.290 mg/kg | GI Transit ID50 ([12]; antagonist p.o., hydrocodone A90 3.2 mg/kg i.v.): 0.410 mg/kg | induction of diarrhea ([12]; on administration of the antagonist): absent | withdrawal symptoms ([13]; 0.5 mg i.v., methadone-dependent subjects): minimal peripheral withdrawal and no detectable CNS withdrawal | subjects tolerating the dose rather well ([13]; 1 mg i.v.): 3 of 4 | overall withdrawal (VAS, SOWS, OOWS, vital signs) ([13]; 0.05-1.0 mg): minimal | tolerability ([13]; 0.05-1.0 mg): well tolerated | tolerability ([13]; 0.05-1.0 mg, listed as 6β-Naltrexol): generally well tolerated | Diastolic BP, peak value ([13]; dose 0.05 mg): 83.0 ± 5.9 mmHg | Heart Rate, peak value ([13]; dose 0.05 mg): 61.8 ± 6.2 bpm | SOWS (total), peak value ([13]; dose 0.05 mg): 0.8 ± 1.0 | Systolic blood pressure (BP), peak value ([13]; dose 0.05 mg): 121.3 ± 7.0 mmHg | VAS Any Drug Effect, peak value ([13]; dose 0.05 mg): 0.5 ± 1.0 | VAS Bad Drug Effect, peak value ([13]; dose 0.05 mg): 0.8 ± 1.5 | VAS Good Drug Effect, peak value ([13]; dose 0.05 mg): 0.3 ± 0.5 | VAS Opioid Withdrawal, peak value ([13]; dose 0.05 mg): 1.3 ± 2.5 | VAS Sickness, peak value ([13]; dose 0.05 mg): 0.50 ± 1.00 | OOWS (total), peak value ([13]; dose 0.05 mg, mean ± standard deviation): 0.8 ± 0.5 | Diastolic BP, peak value ([13]; dose 0.15 mg): 76.5 ± 5.1 mmHg | Heart Rate, peak value ([13]; dose 0.15 mg): 59.5 ± 2.9 bpm | OOWS (total), peak value ([13]; dose 0.15 mg): 1.5 ± 0.6 | SOWS (total), peak value ([13]; dose 0.15 mg): 1.3 ± 1.9 | Systolic blood pressure (BP), peak value ([13]; dose 0.15 mg): 118.5 ± 10.0 mmHg | VAS Any Drug Effect, peak value ([13]; dose 0.15 mg): 1.5 ± 1.7 | VAS Bad Drug Effect, peak value ([13]; dose 0.15 mg): 17.9 ± 32.5 | VAS Good Drug Effect, peak value ([13]; dose 0.15 mg): 2.2 ± 2.8 | VAS Opioid Withdrawal, peak value ([13]; dose 0.15 mg): 1.4 ± 1.3 | VAS Sickness, peak value ([13]; dose 0.15 mg): 9.3 ± 17.2 | Diastolic BP, peak value ([13]; dose 0.5 mg): 80.3 ± 5.7 mmHg | Heart Rate, peak value ([13]; dose 0.5 mg): 61.8 ± 5.7 bpm | OOWS (total), peak value ([13]; dose 0.5 mg): 3.5 ± 1.3 | SOWS (total), peak value ([13]; dose 0.5 mg): 4.3 ± 2.2 | Systolic blood pressure (BP), peak value ([13]; dose 0.5 mg): 118.8 ± 7.6 mmHg | VAS Any Drug Effect, peak value ([13]; dose 0.5 mg): 34.3 ± 15.7 | VAS Bad Drug Effect, peak value ([13]; dose 0.5 mg): 42.5 ± 23.7 | VAS Good Drug Effect, peak value ([13]; dose 0.5 mg): 6.5 ± 12.3 | VAS Opioid Withdrawal, peak value ([13]; dose 0.5 mg): 21.0 ± 29.7 | VAS Sickness, peak value ([13]; dose 0.5 mg): 15.8 ± 18.1 | Diastolic BP, peak value ([13]; dose 1.0 mg): 88.3 ± 12.7 mmHg | Heart Rate, peak value ([13]; dose 1.0 mg): 71.7 ± 4.9 bpm | OOWS (total), peak value ([13]; dose 1.0 mg): 5.3 ± 4.0 | SOWS (total), peak value ([13]; dose 1.0 mg): 4.3 ± 2.8 | Systolic blood pressure (BP), peak value ([13]; dose 1.0 mg): 134.7 ± 26.4 mmHg | VAS Any Drug Effect, peak value ([13]; dose 1.0 mg): 24.0 ± 21.7 | VAS Bad Drug Effect, peak value ([13]; dose 1.0 mg): 26.9 ± 33.0 | VAS Good Drug Effect, peak value ([13]; dose 1.0 mg): 1.0 ± 0.0 | VAS Opioid Withdrawal, peak value ([13]; dose 1.0 mg): 13.1 ± 8.1 | VAS Sickness, peak value ([13]; dose 1.0 mg): 9.0 ± 5.6 | Would continue after highest dose ([13]; individual patients): No and Yes (3×) | pupillometry measures (a CNS effect) ([13]; up to 1 mg): unaffected
